# From patent EP4793641A1, “NOVEL METHOD FOR ANALYZING BIOMOLECULAR INTERACTIONS” (Kyoto University, priority 2023, dated 2025)
# Non-standard residues stand in square brackets, D forms with d. Residues, ends and D or L forms follow the SMILES beside them. *: point of attachment. pS = N[C@@H](COP(=O)(O)O)C(=O)O; Mob = COc1ccc(C*)cc1; Meb = Cc1ccc(C*)cc1; Bn = c1ccc(C*)cc1; Acm = CC(=O)NC*; tBu = CC(C)(C)*; Cam = NC(=O)C*
# Target: T1, interactions between Talin 1 (TLN1) and integrin subunit beta (ITGB) (Homo sapiens, UniProt Q9Y490)
# T1 construct: LgBit or SmBit (N-terminal of the HaloTag); made in house
# Assay: Flip-flop detection mechanism on DNA origami (LgBit/SmBit luminescence), inhibitor screening
# Type: biochemical
# Conditions: inhibition of binding between TLN1 and ITBG
# Excerpt: Two types of systems, i.e., flip-flop detection mechanism and switch detection mechanism, were constructed by using HaloTag, LgBit, SmBit, TLN1, and ITGB. Each of TLN1 (Uniprot ID: Q9Y490) and ITGB1 (Uniprot ID: P05556) was cloned from the registered genetic information. HaloTAg has three chemically modifiable locations at a ligand recognition site, C-terminus, and N-terminus. In this Example, a single-stranded DNA for attaching to DNA origami was connected to a ligand recognition site of HaloTag, a subunit of an interaction complex was connected to the C-terminus, and LgBit or SmBit was connected to the N-terminus.
# The outline of the system is disclosed in Figure 23. When TLN1 and ITBG are in a bound state in this system, LgBit and SmBit are at spatially separated positions from each other, with a HaloTag interposed therebetween. In this regard, if an inhibitor is added, complex formation of TLN1 and ITBG is inhibited. As a result, a LgBit-SmBit complex can be formed, and a luminescence reaction progresses.
# As a candidate drug for inhibiting the binding between TLN1 and ITBG, peptide inhibitors consisting of 13 amino acids prepared by modifying amino acids in an intracellular region of ITGB3 have been designed (Shen B. et al., A directional switch of integrin signaling and a new antithrombotic strategy. Nature 503, 131-135 (2013)). IC50 values for the peptides shown in the following table were calculated by using the flip-flop detection mechanism described in Example 11 for optimizing the sequence. In this manner, the effect of a large number of compounds on the interaction with a target protein can be readily analyzed in the system of the present disclosed.
row,SMILES,Inhibitory activity
1,CSCC[C@H](NC(=O)[C@H](CCCCN)NC(=O)[C@H](CCC(=O)O)NC(=O)[C@H](CCCNC(=N)N)NC(=O)[C@H](CCC(=O)O)NC(=O)[C@H](Cc1ccccc1)NC(=O)[C@@H](N)CCCCN)C(=O)N[C@@H](CCSC)C(=O)N[C@@H](CS)C(=O)N[C@@H](CCCCN)C(=O)N[C@@H](Cc1c[nH]c2ccccc12)C(=O)N[C@@H](CCSC)C(=O)N[C@H](C(=O)O)[C@@H](C)O [FIYM32] (H-KFEREKMMCKWMT-OH),no inhibition
2,CSCC[C@H](NC(=O)[C@H](CCCNC(=N)N)NC(=O)[C@H](CCC(=O)O)NC(=O)[C@H](CCCCN)NC(=O)[C@H](CCC(=O)O)NC(=O)[C@H](Cc1ccccc1)NC(=O)[C@@H](N)CCCCN)C(=O)N[C@@H](CCSC)C(=O)N[C@@H](CS)C(=O)N[C@@H](CCCCN)C(=O)N[C@@H](Cc1c[nH]c2ccccc12)C(=O)N[C@@H](CCSC)C(=O)N[C@H](C(=O)O)[C@@H](C)O [FIYM33] (H-KFEKERMMCKWMT-OH),no inhibition
3,CSCC[C@H](NC(=O)[C@H](CCCCN)NC(=O)[C@H](CCC(=O)O)NC(=O)[C@H](CCCCN)NC(=O)[C@H](CCC(=O)O)NC(=O)[C@H](Cc1ccccc1)NC(=O)[C@@H](N)CCCCN)C(=O)N[C@@H](CC(N)=O)C(=O)N[C@H](C(=O)N[C@@H](CCCCN)C(=O)N[C@@H](Cc1c[nH]c2ccccc12)C(=O)N[C@@H](CCSC)C(=O)N[C@H](C(=O)O)[C@@H](C)O)[C@@H](C)O [FIYM34] (H-KFEKEKMNTKWMT-OH),no inhibition
4,CSCC[C@H](NC(=O)[C@H](CCCCN)NC(=O)[C@H](CCC(=O)O)NC(=O)[C@H](CCCCN)NC(=O)[C@H](CCC(=O)O)NC(=O)[C@H](Cc1ccccc1)NC(=O)[C@@H](N)CCCCN)C(=O)N[C@@H](CC(N)=O)C(=O)N[C@@H](CCSC)C(=O)N[C@@H](CCCCN)C(=O)N[C@@H](Cc1c[nH]c2ccccc12)C(=O)N[C@@H](CCSC)C(=O)N[C@H](C(=O)O)[C@@H](C)O [FIYM35] (H-KFEKEKMNMKWMT-OH),no inhibition
5,CSCC[C@H](NC(=O)[C@H](CCCCN)NC(=O)[C@H](CCC(=O)O)NC(=O)[C@H](CCCCN)NC(=O)[C@H](CCC(=O)O)NC(=O)[C@H](Cc1ccccc1)NC(=O)[C@@H](N)CCCCN)C(=O)N[C@@H](CC(N)=O)C(=O)N[C@@H](COP(=O)(O)O)C(=O)N[C@@H](CCCCN)C(=O)N[C@@H](Cc1c[nH]c2ccccc12)C(=O)N[C@@H](CCSC)C(=O)N[C@H](C(=O)O)[C@@H](C)O [FIYM36] (H-KFEKEKMN[pS]KWMT-OH),no inhibition
6,CSCC[C@H](NC(=O)[C@H](CCCCN)NC(=O)[C@H](CCC(=O)O)NC(=O)[C@H](CCCCN)NC(=O)[C@H](CCC(=O)O)NC(=O)[C@H](Cc1ccccc1)NC(=O)[C@@H](N)CCCCN)C(=O)N[C@@H](CC(N)=O)C(=O)N[C@@H](CSCNC(C)=O)C(=O)N[C@@H](CCCCN)C(=O)N[C@@H](Cc1c[nH]c2ccccc12)C(=O)N[C@@H](CCSC)C(=O)N[C@H](C(=O)O)[C@@H](C)O [FIYM38] (H-KFEKEKMNC(Acm)KWMT-OH),no inhibition
7,CSCC[C@H](NC(=O)[C@H](CCCCN)NC(=O)[C@H](CCC(=O)O)NC(=O)[C@H](CCCCN)NC(=O)[C@H](CCC(=O)O)NC(=O)[C@H](Cc1ccccc1)NC(=O)[C@@H](N)CCCCN)C(=O)N[C@@H](CC(N)=O)C(=O)N[C@@H](CSCc1ccc(C)cc1)C(=O)N[C@@H](CCCCN)C(=O)N[C@@H](Cc1c[nH]c2ccccc12)C(=O)N[C@@H](CCSC)C(=O)N[C@H](C(=O)O)[C@@H](C)O [FIYM41] (H-KFEKEKMNC(Meb)KWMT-OH),no inhibition

# Second part, the compound after the results:
row,Inhibitory activity,SMILES
1,no inhibition,COc1ccc(CSC[C@H](NC(=O)[C@H](CC(N)=O)NC(=O)[C@H](CCSC)NC(=O)[C@H](CCCCN)NC(=O)[C@H](CCC(=O)O)NC(=O)[C@H](CCCCN)NC(=O)[C@H](CCC(=O)O)NC(=O)[C@H](Cc2ccccc2)NC(=O)[C@@H](N)CCCCN)C(=O)N[C@@H](CCCCN)C(=O)N[C@@H](Cc2c[nH]c3ccccc23)C(=O)N[C@@H](CCSC)C(=O)N[C@H](C(=O)O)[C@@H](C)O)cc1 [FIYM42] (H-KFEKEKMNC(Mob)KWMT-OH)
2,no inhibition,CSCC[C@H](NC(=O)[C@H](CCCCN)NC(=O)[C@H](CCC(=O)O)NC(=O)[C@H](CCCCN)NC(=O)[C@H](CCC(=O)O)NC(=O)[C@H](Cc1ccccc1)NC(=O)[C@@H](N)CCCCN)C(=O)N[C@@H](CC(N)=O)C(=O)N[C@@H](CSCc1ccccc1)C(=O)N[C@@H](CCCCN)C(=O)N[C@@H](Cc1c[nH]c2ccccc12)C(=O)N[C@@H](CCSC)C(=O)N[C@H](C(=O)O)[C@@H](C)O [FIYM43] (H-KFEKEKMNC(Bn)KWMT-OH)

# Same assay, conditions: inhibition of binding between TLN1 and ITBG, read-out: Inhibitory activity
row,SMILES,IC50
1,CSCC[C@H](NC(=O)[C@H](CCCCN)NC(=O)[C@H](CCC(=O)O)NC(=O)[C@H](CCCCN)NC(=O)[C@H](CCC(=O)O)NC(=O)[C@H](Cc1ccccc1)NC(=O)[C@@H](N)CCCCN)C(=O)N[C@@H](CC(N)=O)C(=O)N[C@@H](CSCC(N)=O)C(=O)N[C@@H](CCCCN)C(=O)N[C@@H](Cc1c[nH]c2ccccc12)C(=O)N[C@@H](CCSC)C(=O)N[C@H](C(=O)O)[C@@H](C)O [FIYM39] (H-KFEKEKMNC(Cam)KWMT-OH),131 µM
2,CSCC[C@H](NC(=O)[C@H](CCCCN)NC(=O)[C@H](CCC(=O)O)NC(=O)[C@H](CCCCN)NC(=O)[C@H](CCC(=O)O)NC(=O)[C@H](Cc1ccccc1)NC(=O)[C@@H](N)CCCCN)C(=O)N[C@@H](CC(N)=O)C(=O)N[C@@H](CSC(C)(C)C)C(=O)N[C@@H](CCCCN)C(=O)N[C@@H](Cc1c[nH]c2ccccc12)C(=O)N[C@@H](CCSC)C(=O)N[C@H](C(=O)O)[C@@H](C)O [FIYM40] (H-KFEKEKMNC(tBu)KWMT-OH),110 µM

# Now from value to compound:
row,IC50,SMILES
1,314 µM,C[C@H](NC(=O)[C@H](CCCNC(=N)N)NC(=O)[C@H](C)NC(=O)[C@H](CCCNC(=N)N)NC(=O)[C@H](CCC(=O)O)NC(=O)[C@H](CCC(=O)O)NC(=O)[C@H](CCC(=O)O)NC(=O)[C@H](Cc1ccccc1)NC(=O)[C@@H](N)CCCCN)C(=O)N[C@@H](CCCCN)C(=O)N[C@@H](Cc1c[nH]c2ccccc12)C(=O)N[C@@H](CC(=O)O)C(=O)N[C@H](C(=O)O)[C@@H](C)O [FIYM45] (H-KFEEERARAKWDT-OH)
2,474 µM,CSCC[C@H](NC(=O)[C@H](C)NC(=O)[C@H](CCCCN)NC(=O)[C@H](CS)NC(=O)[C@H](CC(N)=O)NC(=O)[C@H](CCSC)NC(=O)[C@H](CCCCN)NC(=O)[C@H](CCC(=O)O)NC(=O)[C@H](CCCCN)NC(=O)[C@H](CCC(=O)O)NC(=O)[C@H](C)NC(=O)[C@@H](N)CCCCN)C(=O)N[C@H](C(=O)O)[C@@H](C)O [FIYM46] (H-KAEKEKMNCKAMT-OH)

# Same assay, conditions: inhibition of binding between TLN1 and ITBG, µM, read-out: Inhibitory activity
row,SMILES,IC50
1,CSCC[C@H](NC(=O)[C@H](CCCCN)NC(=O)[C@H](CCC(=O)O)NC(=O)[C@H](CCCCN)NC(=O)[C@H](CCC(=O)O)NC(=O)[C@H](Cc1ccccc1)NC(=O)[C@@H](N)CCSC)C(=O)N[C@@H](CC(N)=O)C(=O)N[C@@H](CS)C(=O)N[C@@H](CCCCN)C(=O)N[C@@H](Cc1c[nH]c2ccccc12)C(=O)N[C@@H](CCSC)C(=O)N[C@H](C(=O)O)[C@@H](C)O [FIYM47] (H-MFEKEKMNCKWMT-OH),71.4 µM
2,CSCC[C@H](NC(=O)[C@H](CCCCN)NC(=O)[C@H](CCC(=O)O)NC(=O)[C@H](CCCCN)NC(=O)[C@H](CCC(=O)O)NC(=O)[C@H](Cc1ccccc1)NC(=O)[C@H](CCCCN)NC(=O)[C@@H](N)CCSC)C(=O)N[C@@H](CC(N)=O)C(=O)N[C@@H](CS)C(=O)N[C@@H](CCCCN)C(=O)N[C@@H](Cc1c[nH]c2ccccc12)C(=O)N[C@@H](CCSC)C(=O)N[C@H](C(=O)O)[C@@H](C)O [FIYM48] (H-MKFEKEKMNCKWMT-OH),292 µM
